Literature values in US20170042798A1, “USE OF BIDENS EXTRACT TO REDUCE SIGNS OF SKIN AGING” (KIMBERLY-CLARK WORLDWIDE ,INC., priority 2014, published 2017).

Test system: 3T3-L1 cells
Settings: literature, Nutr. Res. 32(6): 439-447

Fucoidan
adipogenesis: inhibit adipogenesis
